Data from patent US12090149B2, “SMAD3 inhibitors” (Moexa Pharmaceuticals Limited, priority 2018, dated 2024).
pIC50: −log10 of the molar value. Several values for one entry are separate records, joined by “and”; a condition that tells them apart may be missing. Identical values can stand only once. Entries after “also recorded” stand apart in the source; their conditions may differ.

Tests used:
Solubility in DMSO = assay type: physicochemical
[1] = system: TGFβ/Smad Signaling Pathway SBE Reporter—HEK293 Cell Line; assay: TGFβ/Smad SBE reporter luciferase assay in HEK293 cells stimulated with human TGFβ1; assay type: cell-based; details: Homo sapiens, 4 h compound, then TGFβ1 20 ng/ml ~18 h
Procedure: • 1. TGFβ/Smad Signaling Pathway SBE Reporter—HEK293 Cell Line BPS Bioscience Catalog #: 60653 • 2. Human TGFβ1 (BPS Bioscience #90900-1) • 3. SIS3 (Sigma #S0447): inhibitor of TGFβ pathway. Prepare stock soln. in DMSO • 4. Growth medium: MEM medium (Invitrogen #11095-080)+10% FBS (ATCC #30-2020)+1% non-essential amino acids (Lonza #13-114E)+1 mM Na pyruvate (Lonza #13-115E)+1% Penicillin/Streptomycin (ATCC #30-2300)+400 μg/ml of Geneticin (Invitrogen #11811-031) • 5. Assay medium: MEM medium+0.5% FBS+1% non-essential amino acids+1 mM Na pyruvate+1% Pen/Strep • 6. 96-well tissue culture-treated white clear-bottom assay plate (Corning #3610) • 7. ONE-Step™ Luciferase Assay System (BPS, Cat. #60690)
SBE reporter-HEK293 cells were harvested from culture in growth medium and seeded at a density of ˜10,000 cells per well into a white clear-bottom 96-well microplate in 100 μl of assay medium. The plate containing cells was incubated at 37° C. in a CO2 incubator. 24 h after seeding, cells were washed with 100 μL of assay buffer and treated with three-fold serial dilution of compounds in 50 μl assay medium. […]
After 18 h of incubation, Luciferase assay was performed using ONE-Step™ Luciferase Assay System according to the protocol provided: 50 μl of ONE-Step™ Luciferase reagent was added per well and shook at room temperature for […]. Luminescence was measured using a luminometer.

B16-F10 syngeneic model = assay: Subcutaneous B16-F10 syngeneic model, tumor growth; assay type: in vivo, C57BL/6 mice
Procedure: In order to evaluate the in vivo efficacy of SIS3 and novel compounds of the present invention, a study has been conducted in treatment of the subcutaneous B16-F10 syngeneic models.
• Animal species and strain: C57BL/6 mice • History of treatment: Naive • Sex, age and weight: Female, 6-8 weeks • Breeder/supplier: Shanghai SLAC Laboratory Animal Co. Ltd • Adaptation: At least 7 days • Room: SPF Room • Room temperature: 20-26° C. • Room relative humidity: 40-70% • Light cycle: Fluorescent light for 12-hour light (08:00-20:00) and 12-hour dark • Animal hosting: 2-5 mice/cage each group • Food: Free access to food • Water: Free access to water (municipal tap water filtered by reverse osmosis or high-pressure sterilizer)
B16-F10 cell was maintained at 37° C. under 5% CO2 in DMEM medium supplemented with 10% FBS and were subsequently cultured within 10 passages before inoculated into the mice.
B16-F10 cells (3×10^5 in 100 μL of serum-free medium) were inoculated to each of C57BL/6 mice via s.c. under anesthesia by 3-4% isoflurane. Each group contains 15 mice.
When average tumor volume reached 35-60 mm^3, 15 mice were randomized into group 6. The day of inoculation was denoted as day 0.
Tumor dimensions were measured on Day 4, 5, 6, 8, 11, 13, 15 and 18, after inoculation in 2 dimensions with calipers.
When required, tumor volume was measured daily. The tumor volume (V) was calculated as follows: V=(length×width^2)/2.
The individual relative tumor volume (RTV) was calculated as follows: RTV=Vt/V0, where Vt was the volume on each day, and V0 was the volume at the beginning of the treatment.
Tumor growth inhibition (TGI), TGI=(1−(Ti−T0)/(Ci−C0))×100%; Ti and Ci as the mean tumor volumes of the treatment and control groups on the measurement day; T0 and C0 as the mean tumor volumes of the treatment and control groups on day 0
Results were expressed as mean±S.E.M. Comparisons between two groups were made by Dunnett's multi-comparison test, p<0.05 were considered as significant.

[2] = single agent, i.p. QD*3 weeks, SIS3 10 and 30 mg/kg, MO-00005 10, 30 and 100 mg/kg, vs vehicle

With `COc1cc2c(cc1OC)CN(C(=O)/C=C/c1c(-c3ccccc3)nc3ccccn13)CC2` [Compound 8, (E)-1-(6,7-dimethoxy-3,4-dihydroisoquinolin-2(1H)-yl)-3-(2-phenylimidazo[1,2-a]pyridin-3-yl)prop-2-en-1-one] the “soluble in DMSO” value (Solubility in DMSO) was “soluble”, the pIC50 [1] was 5.45 and the “Tumor Sizes (mm3) Mean” value (B16-F10 syngeneic model; 10 mg/kg q.d. * 3W i.p., Day 4 (estimated value)) was 0.62 mm3. For the same compound, the “Relative tumor volume Mean” value (B16-F10 syngeneic model; 10 mg/kg q.d. * 3W i.p., Day 4, RTV=Vt/V0) was 0.04, the “Tumor Sizes (mm3) Mean” value (B16-F10 syngeneic model; 10 mg/kg q.d. * 3W i.p., Day 5 (estimated value)) was 0.75 mm3 and the “Relative tumor volume Mean” value (B16-F10 syngeneic model; 10 mg/kg q.d. * 3W i.p., Day 5, RTV=Vt/V0) was 0.04. The “Tumor Sizes (mm3) Mean” value (B16-F10 syngeneic model; 10 mg/kg q.d. * 3W i.p., Day 6 (estimated value)) was 4.31 mm3, the “Relative tumor volume Mean” value (B16-F10 syngeneic model; 10 mg/kg q.d. * 3W i.p., Day 6, RTV=Vt/V0) was 0.19 and the “Tumor Sizes (mm3) Mean” value (B16-F10 syngeneic model; 10 mg/kg q.d. * 3W i.p., Day 8) was 38.42 mm3. For the same compound, the “Relative tumor volume Mean” value (B16-F10 syngeneic model; 10 mg/kg q.d. * 3W i.p., Day 8, RTV=Vt/V0) was 1.00, the “Tumor Sizes (mm3) Mean” value (B16-F10 syngeneic model; 10 mg/kg q.d. * 3W i.p., Day 11) was 151.84 mm3 and the “Relative tumor volume Mean” value (B16-F10 syngeneic model; 10 mg/kg q.d. * 3W i.p., Day 11, RTV=Vt/V0) was 4.80. The “Tumor growth inhibition (%) TGI” value (B16-F10 syngeneic model; 10 mg/kg q.d. * 3W i.p., Day 11, calculated based on tumor volume of Day 8) was 29%, the “Tumor Sizes (mm3) Mean” value (B16-F10 syngeneic model; 10 mg/kg q.d. * 3W i.p., Day 13) was 416.04 mm3 and the “Relative tumor volume Mean” value (B16-F10 syngeneic model; 10 mg/kg q.d. * 3W i.p., Day 13, RTV=Vt/V0) was 12.93. For the same compound, the “Tumor growth inhibition (%) TGI” value (B16-F10 syngeneic model; 10 mg/kg q.d. * 3W i.p., Day 13, calculated based on tumor volume of Day 8) was 30%, the “Tumor Sizes (mm3) Mean” value (B16-F10 syngeneic model; 10 mg/kg q.d. * 3W i.p., Day 15) was 816.24 mm3 and the “Relative tumor volume Mean” value (B16-F10 syngeneic model; 10 mg/kg q.d. * 3W i.p., Day 15, RTV=Vt/V0) was 26.76. For the same compound, the “Tumor growth inhibition (%) TGI” value (B16-F10 syngeneic model; 10 mg/kg q.d. * 3W i.p., Day 15, calculated based on tumor volume of Day 8) was 23%, the “Tumor Sizes (mm3) Mean” value (B16-F10 syngeneic model; 10 mg/kg q.d. * 3W i.p., Day 18) was 2500.45 mm3 and the “Relative tumor volume Mean” value (B16-F10 syngeneic model; 10 mg/kg q.d. * 3W i.p., Day 18, RTV=Vt/V0) was 93.48. The “Tumor growth inhibition (%) TGI” value (B16-F10 syngeneic model; 10 mg/kg q.d. * 3W i.p., Day 18, calculated based on tumor volume of Day 8) was 11%, the “Tumor Sizes (mm3) Mean” value (B16-F10 syngeneic model; 30 mg/kg q.d. * 3W i.p., Day 4 (estimated value)) was 0.36 mm3 and the “Relative tumor volume Mean” value (B16-F10 syngeneic model; 30 mg/kg q.d. * 3W i.p., Day 4, RTV=Vt/V0) was 0.01. For the same compound, the “Tumor Sizes (mm3) Mean” value (B16-F10 syngeneic model; 30 mg/kg q.d. * 3W i.p., Day 5 (estimated value)) was 0.56 mm3, the “Relative tumor volume Mean” value (B16-F10 syngeneic model; 30 mg/kg q.d. * 3W i.p., Day 5, RTV=Vt/V0) was 0.01 and the “Tumor Sizes (mm3) Mean” value (B16-F10 syngeneic model; 30 mg/kg q.d. * 3W i.p., Day 6 (estimated value)) was 5.33 mm3. The “Relative tumor volume Mean” value (B16-F10 syngeneic model; 30 mg/kg q.d. * 3W i.p., Day 6, RTV=Vt/V0) was 0.16, the “Tumor Sizes (mm3) Mean” value (B16-F10 syngeneic model; 30 mg/kg q.d. * 3W i.p., Day 8) was 47.99 mm3 and the “Relative tumor volume Mean” value (B16-F10 syngeneic model; 30 mg/kg q.d. * 3W i.p., Day 8, RTV=Vt/V0) was 1.00. The “Relative tumor volume Mean” value (B16-F10 syngeneic model; 30 mg/kg q.d. * 3W i.p., Day 11, RTV=Vt/V0) was 3.76, the “Tumor growth inhibition (%) TGI” value (B16-F10 syngeneic model; 30 mg/kg q.d. * 3W i.p., Day 11, calculated based on tumor volume of Day 8) was 26% and the “Tumor Sizes (mm3) Mean” value (B16-F10 syngeneic model; 30 mg/kg q.d. * 3W i.p., Day 11, listed as MO-00005) was 165.30 mm3 and 165.3 mm3. The “Tumor Sizes (mm3) Mean” value (B16-F10 syngeneic model; 30 mg/kg q.d. * 3W i.p., Day 13) was 376.62 mm3, the “Relative tumor volume Mean” value (B16-F10 syngeneic model; 30 mg/kg q.d. * 3W i.p., Day 13, RTV=Vt/V0) was 10.44 and the “Tumor Sizes (mm3) Mean” value (B16-F10 syngeneic model; 30 mg/kg q.d. * 3W i.p., Day 15) was 794.11 mm3. The “Relative tumor volume Mean” value (B16-F10 syngeneic model; 30 mg/kg q.d. * 3W i.p., Day 15, RTV=Vt/V0) was 21.61, the “Tumor Sizes (mm3) Mean” value (B16-F10 syngeneic model; 30 mg/kg q.d. * 3W i.p., Day 18) was 2303.09 mm3 and the “Relative tumor volume Mean” value (B16-F10 syngeneic model; 30 mg/kg q.d. * 3W i.p., Day 18, RTV=Vt/V0) was 63.87. For the same compound, the “Relative tumor volume Mean” value (B16-F10 syngeneic model; 100 mg/kg q.d. * 3W i.p. (group 6), Day 8, RTV=Vt/V0) was 1.00, the “Relative tumor volume Mean” value (B16-F10 syngeneic model; 100 mg/kg q.d. * 3W i.p. (group 6), Day 11, RTV=Vt/V0) was 3.70 and the “Tumor growth inhibition (%) TGI” value (B16-F10 syngeneic model; 100 mg/kg q.d. * 3W i.p. (group 6), Day 11, calculated based on tumor volume of Day 8) was 29%. The “Tumor Sizes (mm3) Mean” value (B16-F10 syngeneic model; 100 mg/kg q.d. * 3W i.p. (group 6), Day 11, listed as MO-00005) was 155.10 mm3 and 155.1 mm3, the “Tumor Sizes (mm3) Mean” value (B16-F10 syngeneic model; 100 mg/kg q.d. * 3W i.p. (group 6), Day 13) was 335.85 mm3 and the “Relative tumor volume Mean” value (B16-F10 syngeneic model; 100 mg/kg q.d. * 3W i.p. (group 6), Day 13, RTV=Vt/V0) was 7.98. For the same compound, the “Tumor growth inhibition (%) TGI” value (B16-F10 syngeneic model; 100 mg/kg q.d. * 3W i.p. (group 6), Day 13, calculated based on tumor volume of Day 8) was 46%, the “Tumor Sizes (mm3) Mean” value (B16-F10 syngeneic model; 100 mg/kg q.d. * 3W i.p. (group 6), Day 15) was 724.03 mm3 and the “Relative tumor volume Mean” value (B16-F10 syngeneic model; 100 mg/kg q.d. * 3W i.p. (group 6), Day 15, RTV=Vt/V0) was 17.31. For the same compound, the “Tumor growth inhibition (%) TGI” value (B16-F10 syngeneic model; 100 mg/kg q.d. * 3W i.p. (group 6), Day 15, calculated based on tumor volume of Day 8) was 32%, the “Tumor Sizes (mm3) Mean” value (B16-F10 syngeneic model; 100 mg/kg q.d. * 3W i.p. (group 6), Day 18) was 2107.22 mm3 and the “Relative tumor volume Mean” value (B16-F10 syngeneic model; 100 mg/kg q.d. * 3W i.p. (group 6), Day 18, RTV=Vt/V0) was 50.47. For the same compound, the “Tumor growth inhibition (%) TGI” value (B16-F10 syngeneic model; 100 mg/kg q.d. * 3W i.p. (group 6), Day 18, calculated based on tumor volume of Day 8) was 25%, the “Tumor Sizes (mm3) Mean” value (B16-F10 syngeneic model; 100 mg/kg q.d. * 3W i.p. (group 6, randomized at tumor volume 35-60 mm^3), Day 8) was 42.19 mm3 and the “reduction of tumor weight compared to the control group” value (B16-F10 syngeneic model; high dose group, after 18 days of the experiment) was roughly 50%. The “anti-tumor activity against the B16-F10 syngeneic model (in words)” value (B16-F10 syngeneic model; [2]) was “anti-tumor response; also recorded: significant anti-tumor activity; also recorded: inhibits the growth of cancer” and the “efficacy on tumor weight (in words)” value (B16-F10 syngeneic model; [2]) was “significant efficacy on tumor weight”.
